30 molecules from US11203574B2 (BioCryst Pharmaceuticals, Inc., priority 2014, dated 2021) can be followed below.

This test addresses human plasma kallikrein (Homo sapiens (Human), UniProt P03952). The test is described as follows: Plasma kallikrein activity assay (chromogenic substrate S2302). The test is classed as biochemical. The following applies: 2 nM kallikrein, 80 μM S2302, 30° C., pH 7.8, Ki by Cheng-Prusoff equation, values given as ranges.

The structures appear in SMILES notation. Read-outs that look alike come from different tables or passages of the source.

Chain of human plasma kallikrein (P03952 whole entry, looked up): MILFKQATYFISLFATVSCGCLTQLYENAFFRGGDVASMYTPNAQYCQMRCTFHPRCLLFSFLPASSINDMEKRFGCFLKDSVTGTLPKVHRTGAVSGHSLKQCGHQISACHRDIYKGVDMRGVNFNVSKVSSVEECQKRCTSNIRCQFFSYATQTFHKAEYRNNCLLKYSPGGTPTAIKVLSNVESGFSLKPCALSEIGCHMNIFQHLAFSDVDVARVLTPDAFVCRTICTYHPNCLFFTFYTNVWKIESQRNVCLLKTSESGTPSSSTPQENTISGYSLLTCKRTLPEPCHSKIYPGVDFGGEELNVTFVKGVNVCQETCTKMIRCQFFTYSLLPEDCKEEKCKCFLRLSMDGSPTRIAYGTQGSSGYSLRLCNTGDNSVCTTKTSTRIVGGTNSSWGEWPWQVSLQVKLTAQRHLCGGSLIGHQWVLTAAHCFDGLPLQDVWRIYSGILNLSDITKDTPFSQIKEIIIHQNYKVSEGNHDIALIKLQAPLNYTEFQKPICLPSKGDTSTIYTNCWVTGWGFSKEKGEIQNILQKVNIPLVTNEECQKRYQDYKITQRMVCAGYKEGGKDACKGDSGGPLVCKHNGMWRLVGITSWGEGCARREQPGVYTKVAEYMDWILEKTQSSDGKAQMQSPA
Chain of human plasma kallikrein (P03952 whole entry partner, looked up): as the sequence (P03952 whole entry, looked up) above
Experimental: Plasma Kallikrein Activity Assay.
The effect of compounds of the invention on human plasma kallikrein activity was determined using the chromogenic substrates (DiaPharma Group, Inc., West Chester, Ohio, USA). In these experiments, 2 nM kallikrein (Enzyme Research Laboratories, South Bend, Ind., USA) was incubated with 80 μM S2302 (H-D-Pro-Phe-Arg-p-nitroaniline) in the absence or presence of increasing concentrations of compounds of the invention in a final volume of 200 μL Tris-HCl buffer (200 mM NaCl; mM CaCl2; 50 mM Tris-HCl, pH 7.8).
Data were analyzed using SigmaPlot software (Systat Software, Inc., San Jose, Calif., USA) (Four Parameter Logistic Curve).

Turning to `NCc1cccc(-n2nc(C(F)(F)F)cc2C(=O)Nc2cccc(C(OCC3CC3)c3ccccc3)c2)c1` (stereo not drawn) [18k, 1-(3-(aminomethyl)phenyl)-N-(3-((cyclopropylmethoxy)(phenyl)methyl)phenyl)-3-(trifluoromethyl)-1H-pyrazole-5-carboxamide], under “read-out: Ki”, the inhibition constant (Ki) – broadly, the dissociation constant of the complex between target and ligand, obtained from inhibition or displacement – was in the range of 0.1 to 50 nM. `CCOC(c1ccccc1)c1ccc(F)c(NC(=O)c2cc(C(F)(F)F)nn2-c2cccc(CN)c2)c1` (stereo not drawn) [25b, 1-(3-(aminomethyl)phenyl)-N-(5-(ethoxy(phenyl)methyl)-2-fluorophenyl)-3-(trifluoromethyl)-1H-pyrazole-5-carboxamide]: the inhibition constant (Ki) (read-out: Ki) is 50 to 100 nM. Same read-out and setting: then `CCCN(c1ccccc1)c1cccc(NC(=O)c2cc(C(F)(F)F)nn2-c2cccc(CN)c2)c1` [27f, 1-(3-(aminomethyl)phenyl)-N-(3-(phenyl(propyl)amino)phenyl)-3-(trifluoromethyl)-1H-pyrazole-5-carboxamide], with 50 to 100 nM. On the same count and under the same terms, then `CCCN(c1ccccc1)c1cccc(NC(=O)c2cc(C(F)(F)F)nn2-c2cccc(CN)c2)c1F` [29e, 1-(3-(aminomethyl)phenyl)-N-(2-fluoro-3-(phenyl(propyl)amino)phenyl)-3-(trifluoromethyl)-1H-pyrazole-5-carboxamide], with 0.1 to 50 nM.

For the molecule `CCCCC(c1ccccc1)c1cccc(NC(=O)c2cc(C(F)(F)F)nn2-c2cccc(CN)c2)c1` (stereo not drawn) [32f, 1-(3-(aminomethyl)phenyl)-N-(3-(1-phenylpentyl)phenyl)-3-(trifluoromethyl)-1H-pyrazole-5-carboxamide], where the note is “read-out: Ki”, the Ki is 50 to 100 nM. Still for that read-out and setting: then `NCc1cccc(-n2nc(C(F)(F)F)cc2C(=O)Nc2cccc(C(O)c3ccccc3)c2F)c1` (stereo not drawn) [35g, 1-(3-(aminomethyl)phenyl)-N-(2-fluoro-3-(hydroxy(phenyl)methyl)phenyl)-3-(trifluoromethyl)-1H-pyrazole-5-carboxamide], with 50 to 100 nM. The same measure, in the same setting: then `NCc1cccc(-n2nc(C(F)(F)F)cc2C(=O)Nc2cccc(C(OCC3CC3)c3ccccc3)c2F)c1` (stereo not drawn) [36d, 1-(3-(aminomethyl)phenyl)-N-(3-((cyclopropylmethoxy)(phenyl)methyl)-2-fluorophenyl)-3-(trifluoromethyl)-1H-pyrazole-5-carboxamide], with 0.1 to 50 nM. Still for that read-out and setting: then `NCc1cccc(-n2nc(C(F)(F)F)cc2C(=O)Nc2cccc(C(O)(CCC3CC3)c3ccccn3)c2)c1` (stereo not drawn) [45g, 1-(3-(aminomethyl)phenyl)-N-(3-(3-cyclopropyl-1-hydroxy-1-(pyridin-2-yl)propyl)phenyl)-3-(trifluoromethyl)-1H-pyrazole-5-carboxamide], with 0.1 to 50 nM; and `NCc1cccc(-n2nc(C(F)(F)F)cc2C(=O)Nc2cccc(C(OCC3CC3)c3cccc(N)c3)c2)c1` (stereo not drawn) [53f, 1-(3-(aminomethyl)phenyl)-N-(3-((3-aminophenyl)(cyclopropyl-methoxy)methyl)phenyl)-3-(trifluoromethyl)-1H-pyrazole-5-carboxamide], with 0.1 to 50 nM.

Regarding `NCc1cccc(-n2nc(C(F)(F)F)cc2C(=O)Nc2cccc(C(OCCC3CC3)c3ccccc3)c2)c1` (stereo not drawn) [74a, 1-(3-(aminomethyl)phenyl)-N-(3-((2-cyclopropylethoxy)(phenyl)methyl)phenyl)-3-(trifluoromethyl)-1H-pyrazole-5-carboxamide], the inhibition constant Ki (Ki) was 0.1 to 50 nM. For the molecule `NCc1cccc(-n2nc(C(F)(F)F)cc2C(=O)Nc2cccc(C(OCC3CCC3)c3ccccc3)c2)c1` (stereo not drawn) [75a, 1-(3-(aminomethyl)phenyl)-N-(3-((cyclobutylmethoxy)(phenyl)methyl)phenyl)-3-(trifluoromethyl)-1H-pyrazole-5-carboxamide], the inhibitory constant (Ki) (read-out: Ki) was 50 to 100 nM. Still for that read-out and setting: then `CCCN(c1ccccc1)c1ccc(F)c(NC(=O)c2cc(C(F)(F)F)nn2-c2cccc(CN)c2)c1` [77e, 1-(3-(aminomethyl)phenyl)-N-(2-fluoro-5-(phenyl(propyl)amino)phenyl)-3-(trifluoromethyl)-1H-pyrazole-5-carboxamide], with 0.1 to 50 nM; and `NCc1cccc(-n2nc(C(F)(F)F)cc2C(=O)Nc2cccc(C(CCC3CC3)c3ccccc3)c2)c1` (stereo not drawn) [78d, 1-(3-(aminomethyl)phenyl)-N-(3-(3-cyclopropyl-1-phenylpropyl)phenyl)-3-(trifluoromethyl)-1H-pyrazole-5-carboxamide], with 0.1 to 50 nM; and `NCc1cccc(-n2nc(C(F)(F)F)cc2C(=O)Nc2cccc(C(NCC3CC3)c3cccnc3)c2)c1` (stereo not drawn) [79f, 1-(3-(Aminomethyl)phenyl)-N-(3-(((cyclopropylmethyl)amino)(pyridin-3-yl)methyl)phenyl)-3-(trifluoromethyl)-1H-pyrazole-5-carboxamide], with 0.1 to 50 nM.

Take `NCc1cccc(-n2nc(C(F)(F)F)cc2C(=O)Nc2cc(F)cc(C(OCC3CC3)c3ccccc3)c2)c1` (stereo not drawn) [80h, 1-(3-(aminomethyl)phenyl)-N-(3-((cyclopropylmethoxy)(phenyl)methyl)-5-fluorophenyl)-3-(trifluoromethyl)-1H-pyrazole-5-carboxamide]: the inhibition constant (Ki) (read-out: Ki) lay within 0.1 to 50 nM.

Regarding `NCc1cccc(-n2nc(C(F)(F)F)cc2C(=O)Nc2cccc(C(OCC3CC3)c3nccs3)c2)c1` (stereo not drawn) [82f, 1-(3-(aminomethyl)phenyl)-N-(3-((cyclopropylmethoxy)(thiazol-2-yl)methyl)phenyl)-3-(trifluoromethyl)-1H-pyrazole-5-carboxamide], for the setting “read-out: Ki”, the inhibitory constant (Ki) was in the range of 0.1 to 50 nM. Still for that read-out and setting: then `NCc1cccc(-n2nc(C(F)(F)F)cc2C(=O)Nc2cccc(C(NCC3CC3)c3ccccn3)c2)c1` (stereo not drawn) [83c, 1-(3-(aminomethyl)phenyl)-N-(3-((cyclopropylmethylamino)(pyridin-2-yl)methyl)phenyl)-3-(trifluoromethyl)-1H-pyrazole-5-carboxamide], with 0.1 to 50 nM; and `NCc1cccc(-n2nc(C(F)(F)F)cc2C(=O)Nc2cccc(C(NCC3CC3)c3cn[nH]c3)c2)c1` (stereo not drawn) [84h, 1-(3-(aminomethyl)phenyl)-N-(3-(((cyclopropylmethyl)amino)(1H-pyrazol-4-yl)methyl)phenyl)-3-(trifluoromethyl)-1H-pyrazole-5-carboxamide], with 0.1 to 50 nM; and `NCc1cccc(-n2nc(C(F)(F)F)cc2C(=O)Nc2cccc(C(NCC3CC3)c3nccs3)c2)c1` (stereo not drawn) [85c, 1-(3-(aminomethyl)phenyl)-N-(3-((cyclopropylmethylamino)(thiazol-2-yl)methyl)phenyl)-3-(trifluoromethyl)-1H-pyrazole-5-carboxamide], with 0.1 to 50 nM. Still for that read-out and setting: the value for `NCc1cccc(-n2nc(C(F)(F)F)cc2C(=O)Nc2cccc(C(NCC3CC3)c3ccncc3)c2)c1` (stereo not drawn) [86g, 1-(3-(aminomethyl)phenyl)-N-(3-((cyclopropylmethylamino)(pyridin-4-yl)methyl)phenyl)-3-(trifluoromethyl)-1H-pyrazole-5-carboxamide] was 0.1 to 50 nM. Take `NCc1cccc(-n2nc(C(F)(F)F)cc2C(=O)Nc2cccc(N(CCC3CC3)c3ccccc3)c2)c1` [87f, 1-(3-(aminomethyl)phenyl)-N-(3-((2-cyclopropylethyl)(phenyl)amino)phenyl)-3-(trifluoromethyl)-1H-pyrazole-5-carboxamide]: the inhibition constant Ki (read-out: Ki) was 0.1 to 50 nM.

On to `NCc1cccc(-n2nc(C(F)(F)F)cc2C(=O)Nc2cccc(C(NCC3CC3)c3ccccc3)c2F)c1` (stereo not drawn) [88b, 1-(3-(aminomethyl)phenyl)-N-(3-((cyclopropylmethylamino)(phenyl)methyl)-2-fluorophenyl)-3-(trifluoromethyl)-1H-pyrazole-5-carboxamide], for which, under “read-out: Ki”, the Ki lay in the range of 0.1 to 50 nM. Still for that read-out and setting: the value for `NCc1cccc(-n2nc(C(F)(F)F)cc2C(=O)Nc2cccc(C(CCC3CC3)n3ccnc3)c2)c1` (stereo not drawn) [89g, 1-(3-(aminomethyl)phenyl)-N-(3-(3-cyclopropyl-1-(1H-imidazol-1-yl)propyl)phenyl)-3-(trifluoromethyl)-1H-pyrazole-5-carboxamide] was 0.1 to 50 nM.

As for `NCc1cccc(-n2nc(C(F)(F)F)cc2C(=O)Nc2cccc(C(O)(CCC3CC3)c3ccncc3)c2)c1` (stereo not drawn) [92g, 1-(3-(aminomethyl)phenyl)-N-(3-(3-cyclopropyl-1-hydroxy-1-(pyridin-4-yl)propyl)phenyl)-3-(trifluoromethyl)-1H-pyrazole-5-carboxamide], the inhibition constant (Ki) (read-out: Ki) lay in the range of 0.1 to 50 nM. On the same count and under the same terms, then `NCc1cccc(-n2nc(C(F)(F)F)cc2C(=O)Nc2cc(C(NCC3CC3)c3cccnc3)ccc2F)c1` (stereo not drawn) [94b, 1-(3-(aminomethyl)phenyl)-N-(5-((cyclopropylmethylamino)(pyridin-3-yl)methyl)-2-fluorophenyl)-3-(trifluoromethyl)-1H-pyrazole-5-carboxamide], with 0.1 to 50 nM; and `NCc1cccc(-n2nc(C(F)(F)F)cc2C(=O)Nc2cc(C(NCC3CC3)c3cccnc3)ccc2Cl)c1` (stereo not drawn) [96f, 1-(3-(Aminomethyl)phenyl)-N-(2-chloro-5-((cyclopropylmethylamino)(pyridin-3-yl)methyl)phenyl)-3-(trifluoromethyl)-1H-pyrazole-5-carboxamide], with 0.1 to 50 nM; and `NCc1cccc(-n2nc(C(F)(F)F)cc2C(=O)Nc2cccc(C(CCC3CC3)N3CCCC3)c2)c1` (stereo not drawn) [98b, 1-(3-(aminomethyl)phenyl)-N-(3-(3-cyclopropyl-1-(pyrrolidin-1-yl)propyl)phenyl)-3-(trifluoromethyl)-1H-pyrazole-5-carboxamide], with 0.1 to 50 nM.

Take `NCc1cccc(-n2nc(C(F)(F)F)cc2C(=O)Nc2cccc(C(O)(CNC3CC3)c3ccccc3)c2)c1` (stereo not drawn) [99g, 1-(3-(aminomethyl)phenyl)-N-(3-(2-(cyclopropylamino)-1-hydroxy-1-phenylethyl)phenyl)-3-(trifluoromethyl)-1H-pyrazole-5-carboxamide]: where the note is “read-out: Ki”, the Ki is 0.1 to 50 nM.

On to `NCc1cccc(-n2nc(C(F)(F)F)cc2C(=O)Nc2cc(C(NCC3CC3)c3ccccn3)ccc2F)c1` (stereo not drawn) [100e, 1-(3-(aminomethyl)phenyl)-N-(5-((cyclopropylmethylamino)(pyridin-2-yl)methyl)-2-fluorophenyl)-3-(trifluoromethyl)-1H-pyrazole-5-carboxamide], for which the Ki (read-out: Ki) was 0.1 to 50 nM. The same measure, in the same setting: then `NCc1cccc(-n2nc(C(F)(F)F)cc2C(=O)Nc2cc(C(NCC3CC3)c3nccs3)ccc2F)c1` (stereo not drawn) [101e, 1-(3-(Aminomethyl)phenyl)-N-(5-((cyclopropylmethylamino)(thiazol-2-yl)methyl)-2-fluorophenyl)-3-(trifluoromethyl)-1H-pyrazole-5-carboxamide], with 0.1 to 50 nM.
